# Assay results taken from US12358921B2, “Antiviral heterocyclic compounds” (priority 2022, dated 2025).
# How the values were obtained:
# hMPV A2 TN/94-49 = experiment: HMPV antiviral assay Method 2 (LLC-MK2 cells with CP-100-356, ATP-Lite); assay type: cell-based; settings: hMPV A2 TN/94-49, LLC-MK2 cells, 4 μM CP-100-356, Method 2
# How it was run: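 LLC-MK2 cells infected in suspension with hMPV A2 TN/94-49 at MOI 0.16, in serum-free OptiMEM with final 2 μg/mL TPCK-trypsin and 2 μM CP-100-356 (P-gp inhibitor). Compounds tested in duplicate, top 200 nM, 2.5-fold, 10 points; 7 days at 37 °C. ATP-Lite cell health normalised to controls; EC50 by four-parameter fit.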
# [1] = system: HUMAN RSV-A (“LONG” STRAIN); experiment: RSV-A assay (CPE, ATPlite) in Hep-2 cells; assay type: cell-based; settings: human respiratory syncytial virus, 120 h, MOI 0.1, 5-day incubation
# Description: Methods for RSV-A Assay Hep-2 cells, (originally derived from tumors grown in irradiated-cortisonised weanling rats that had been injected with epidermoid carcinoma tissue from the larynx of a person, but later found to be indistinguishable from HeLa cells by PCR DNA analysis), were used for the culturing of genotype A, “Long” strain RSV. Flasks were inoculated with RSV and viral stocks were collected once cytopathic effect (CPE) was greater than 90%. Viral stocks in 25% sucrose media were snap frozen using liquid nitrogen to increase viral stability. Viral stock titers were quantified by tissue culture infectious dose 50% (TCID50) using 8,000 cells per well and 3-fold viral dilutions across a 96-well plate, cultured for 4 days. Viral stock titers were also quantified by a plaque forming unit assay, as described elsewhere.
# Following extensive parameter testing, the final assay is run as follows: Hep-2 cells are seeded into the inner 60 wells of a 96-well plate at 8,000 cells per well in a volume of 50 μL using Growth Media (DMEM without phenol red, 1% L-Glut, 1% Penn/Strep, 1% nonessential amino acids, 10% heat-inactivated FBS). 2-fold serial dilutions of control and test compounds are added to the wells in duplicate in a total volume of 25 μL. Viral stock is then added to the wells at a multiplicity of infection (MOI) of 0.1 in a volume of 25 μL, bringing the total volume of each well to 100 μL. The MOI is calculated using the PFU/mL, or TCID50 if unavailable. Each 96-well plate has a control column of 6 wells with cells and virus but no compound (negative control, max CPE), a column with cells but no compound or virus (positive control, minimum CPE), and a column with no cells or virus or compound (background plate/reagent control). The control wells with cells but no virus are given an additional 25 μL of growth media containing an equal quantity of sucrose as those wells receiving the viral stock in order to keep consistent in media and volume conditions. The outer wells of the plate are filled with 125 μL of moat media (DMEM, 1% Penn/Strep) to act as a thermal and evaporative moat around the test wells. Following a 5-day incubation period, the plates are read using ATPlite (50 uL added per well), which quantifies the amount of ATP (a measure of cell health) present in each well. Assay plates are read using the Envision luminometer. […] EC50 ranges are as follows: A<0.2 μM; B>0.2 μM.
SMILES,EC50 (hMPV A2 TN/94-49) [µM],EC50 [1] [µM]
COc1cc(C(=O)NC[C@@](O)(c2ccccc2)c2cc3c(c(-c4cccc5c4OCO5)n2)OC[C@]3(C)C(N)=O)cc2cn(C3(F)CC3)nc12 [Example 366],> 0.2,< 0.2
COc1cc(C(=O)NC[C@@](O)(c2ccnc(N)c2)c2cc3c(c(-c4cc(Cl)c(F)cc4F)n2)OC[C@]3(C)C(N)=O)cc2cn(C3CC3)nc12 [Example 484],< 0.2,< 0.2
Cc1nc2c(OC(F)F)cc(C(=O)NC[C@](O)(c3cc4c(c(-c5cc(Cl)c(F)cc5F)n3)OC[C@]4(C)C(N)=O)c3ccccc3F)cc2cc1Br [Example 139],> 0.2,< 0.2
C[C@]1(C(N)=O)COc2c1cc([C@@](O)(CNC(=O)c1cc(Cl)c3nn(C4CC4)cc3c1)c1ccccc1)nc2-c1cc(Cl)c(F)cc1F [Example 99],< 0.2,< 0.2
COc1cc(C(=O)NC[C@@](O)(c2ccccc2)c2cc3c(c(-c4cc(C(F)(F)F)c(F)cc4F)n2)OC[C@]3(C)C(N)=O)cc2cn(C3(F)CC3)nc12 [Example 303],< 0.2,< 0.2
COc1cc(C(=O)NC[C@@](O)(c2cc[nH]c(=O)c2)c2cc3c(c(-c4cc(Cl)c(F)cc4F)n2)OC[C@]3(C)C(N)=O)cc2cn(C3CC3)nc12 [Example 504],> 0.2,< 0.2
COc1cc(C(=O)NC[C@@](O)(c2ccccc2)c2cc3c(c(-c4cc(Cl)c(F)cc4F)n2)OC[C@]3(C)C(N)=O)cc2cc(Cl)c(F)nc12 [Example 342],> 0.2,< 0.2
COc1cc(C(=O)NC[C@@](O)(c2ccnc(C)c2)c2cc3c(c(-c4cc(Cl)c(F)cc4F)n2)OC[C@]3(C)C(N)=O)cc2cn(C3CC3)nc12 [Example 485],< 0.2,< 0.2
COc1cc(C(=O)NC[C@@](O)(c2ccccc2)c2cc3c(c(-c4ccc(S(C)(=O)=O)cc4F)n2)OC[C@]3(C)C(N)=O)cc2cn(C3(F)CC3)nc12 [Example 371],> 0.2,< 0.2
COc1cc(-c2nc([C@@](O)(CNC(=O)c3cc(OC)c4nn(C5(F)CC5)cc4c3)c3ccccc3)cc3c2OC[C@]3(C)C(N)=O)c(F)cc1F [Example 364],> 0.2,< 0.2
COc1cc(C(=O)NC[C@@](O)(c2cccc(F)n2)c2cc3c(c(-c4cc(Cl)c(F)cc4F)n2)OC[C@]3(C)C(N)=O)cc2cc(C3CC3)nn12 [Example 206],< 0.2,< 0.2

# Now from value to molecule:
EC50 (hMPV A2 TN/94-49) [µM],EC50 [1] [µM],SMILES
> 0.2,< 0.2,COc1cc(C(=O)NC[C@@](O)(c2cccc(S(N)(=O)=O)c2)c2cc3c(c(-c4cc(Cl)c(F)cc4F)n2)OC[C@]3(C)C(N)=O)cc2cn(C3CC3)nc12 [Example 486]
< 0.2,< 0.2,C[C@]1(C(N)=O)COc2c1cc([C@@](O)(CNC(=O)c1cc(OC3CC3)c3nn(C4(F)CC4)cc3c1)c1cccc(F)c1)nc2-c1cccc(Cl)c1Cl [Example 339]
< 0.2,< 0.2,COc1cc([C@](O)(CNC(=O)c2cc(OC)c3nn(C4CC4)cc3c2)c2cc3c(c(-c4cccc(Cl)c4Cl)n2)OC[C@]3(C)C(N)=O)cc(OC)n1 [Example 497]
> 0.2,> 0.2,COc1cc(C(=O)NC[C@@](O)(c2cccc(F)c2)c2cc3c(c(-c4ccc(C(C)(C)O)cc4)n2)OC[C@]3(C)C(N)=O)cc2cn(C3(F)CC3)nc12 [Example 397]
< 0.2,< 0.2,Cc1nc2ccc(C(=O)NC[C@@](O)(c3ccccc3)c3cc4c(c(-c5cc(F)c(F)cc5F)n3)OC[C@]4(C)C(N)=O)cc2o1 [Example 192]
< 0.2,< 0.2,COc1cc(C(=O)NC[C@@](O)(c2cccc(F)c2)c2cc3c(c(-c4ccc5c(c4Cl)OC(F)(F)O5)n2)OC[C@]3(C)C(N)=O)cc2oc(C)nc12 [Example 285]
> 0.2,< 0.2,C[C@]1(C(N)=O)COc2c1cc([C@@](O)(CNC(=O)c1ccc3nc(C4CC4)oc3c1)c1ccccc1)nc2-c1cc(C(F)(F)F)c(F)cc1F [Example 307]
